# Measured values taken from ChEMBL document CHEMBL5357062, “Emopamil-Binding Protein Inhibitors for Treating Multiple Sclerosis” (ACS Med Chem Lett, 2024).
# Target: 3-beta-hydroxysteroid-Delta(8),Delta(7)-isomerase (Homo sapiens, UniProt Q15125)
# Experiment: Inhibition of EBP in HEK293T cells using zymosterol-d5 as substrate preincubated for 30 mins followed by substrate addition and measured after 4 hrs by LC-MS analysis
# Format: cell-based
# 3-beta-hydroxysteroid-Delta(8),Delta(7)-isomerase, sequence (Q15125 whole entry): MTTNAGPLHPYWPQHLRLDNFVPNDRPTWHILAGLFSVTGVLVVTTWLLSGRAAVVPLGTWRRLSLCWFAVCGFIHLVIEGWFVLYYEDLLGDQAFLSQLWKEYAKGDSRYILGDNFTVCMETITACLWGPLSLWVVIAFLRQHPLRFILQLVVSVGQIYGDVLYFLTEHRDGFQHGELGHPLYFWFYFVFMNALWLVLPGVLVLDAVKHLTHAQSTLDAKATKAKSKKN
row,Compound,IC50
1,O=S(=O)(c1ccc(C(F)(F)F)nc1C1CC1)N1CC2(CN(C3CCOCC3)C2)C1,< 0.1 µM
2,CC(C)c1cc(S(=O)(=O)N2CC3(CN(C4CCOCC4)C3)C2)n(C)n1,< 0.1 µM
3,O=S(=O)(c1cc(F)cc(F)c1)N1CCOC2(CCN(C3CCOCC3)C2)C1 (stereo unspecified),< 0.1 µM
4,Cc1nc(C(F)(F)F)ccc1S(=O)(=O)N1CC2(CN(C(C)C3CCCO3)C2)C1 (stereo unspecified),< 0.1 µM

# Next, values leading:
row,IC50,Compound
1,< 0.1 µM,Cn1nc(C(F)(F)F)cc1S(=O)(=O)N1CC2(CN(CC3CC4(COC4)C3)C2)C1
2,< 0.1 µM,Cn1nc(C(F)(F)F)cc1S(=O)(=O)N1CCC2(CCN(C3CCOCC3)C2)CC1
